Experimental data published in publication PMC5028882, “Antiviral activities of peptide-based covalent inhibitors of the Enterovirus 71 3C protease” (Scientific Reports, 2016).
Entries after “also recorded” stand apart in the source; their conditions may differ. Where two headings read alike, the source gives them in different places.

Key:
[1] = test system: EV71-infected human RD cells; experiment: Antiviral cellular assay, EV71-infected RD cells, virus titre by plaque assay; format: cell-based, human enterovirus 71 (EV71); conditions: for EC50: Enterovirus A, read-out: EC50 for EV71 infections; for Antiviral activity on EV71-infected RD cells (in words): virus titre reduction, up to 5 μM, 12 h
Description: (§1) Human RD cells were cultured in DMEM/F-12 (Gibco) supplemented with 10% FBS (GE Healthcare) and the infection medium used for all infections and compound treatment contained was supplemented with 2% FBS. For the compound treatment assays, monolayers of RD cells were first infected with EV71 at a multiplicity of infection (MOI) of 1 for 1 hour at 37 °C, 5% CO2. The compounds were then introduced to the cells at different concentrations. Culture supernatant was collected at 12 hours post-treatment for determination of infectious virus titre by viral plaque assay. Each culture supernatant was 10-fold serially diluted and 100 μL was added, in triplicates, to a monolayer of RD cells in a 24-well format. The infection was allowed to proceed for 1 h at 37 °C, 5% CO2 before the virus was removed. The cells were then washed to remove unbound virus particles with PBS (pH 7.4) and overlaid with infection medium containing 0.5% agarose. The cells were incubated for 48 hours at 37 °C before they were fixed with 4% paraformaldehyde and stained with crystal violet. Plaques that formed were counted visually and the infectious virus titre was calculated, expressed as the average number of PFU per milliliter (PFU/mL) of sample. The 50% effective concentration, EC50, was determined for selected compounds by a non-linear regression graph fitting of the virus titre obtained at a minimum of 5 different compound concentrations and 0.05% DMSO was included as an untreated control.

[2] = Parallel artificial membrane permeability assay (PAMPA); format: in vitro ADME; conditions: for Papp at 4 h, 50 μM: pH 7.4, 50 μM, 4 h incubation, read-out: Permeability (P) at pH 7.4
Description: PAMPA was conducted by GVK Biosciences (India) using Pion PAMPA Sandwich Plates (Pion Inc., USA). Briefly: test compounds were dissolved in buffer at pH 7.4 to make a 50 μM stock solution. 200 μL was then added to the donor compartment of the plate. The plate was inverted and 200 μL of buffer (pH 7.4) was added to the acceptor compartment. After incubation (4 hours), a 50 μL sample was analyzed by UV using a spectrophotometer. Experiments were conducted in triplicates. Compound permeability (P) was calculated using the formula:
where: CA = compound concentration in the acceptor compartment at 4 h, Ceq = compound concentration at equilibrium at 4 h, A = filter area (0.3 cm^2), VA = acceptor compartment volume (200 μL), VD = donor compartment volume (200 μL), t = incubation time (14,400 s). Compounds with a P value of <10 × 10^−6 cm.s^−1 are considered to have low permeability.

Echovirus 7 (E7) = experiment: Antiviral assay, Echovirus 7-infected RD cells; format: cell-based; conditions: 100 nM and 1 μM, virus titre after 12 hours
Description: (§2) RD cells were infected with either Coxsackievirus A6 (CA6), Coxsackievirus A16 (CA16) (strain G-10, GenBank accession no. U05876), patient isolates of Coxsackievirus A6 (CA6), or Echovirus 7 (E7) and subjected to treatment with compound 9 at 100 nM or 1 μM or negative control 0.05% DMSO.
as §1, with “The cells were incubated for 48 hours at 37 °C before they were fixed with 4% paraformaldehyde and stained with crystal violet.” left out, “The 50% effective concentration, EC50, was determined for selected compounds by a non-linear regression graph fitting of the virus titre obtained at a minimum of 5 different compound concentrations and 0.05% DMSO was included as an untreated control.” left out

Coxsackievirus A6 (CA6) = experiment: Antiviral assay, Coxsackievirus A6-infected RD cells; format: cell-based; conditions: 100 nM and 1 μM, virus titre after 12 hours
Description: as §2
as §1, with “The cells were incubated for 48 hours at 37 °C before they were fixed with 4% paraformaldehyde and stained with crystal violet.” left out, “The 50% effective concentration, EC50, was determined for selected compounds by a non-linear regression graph fitting of the virus titre obtained at a minimum of 5 different compound concentrations and 0.05% DMSO was included as an untreated control.” left out

[3] = test system: Coxsackievirus A16 (CA16); experiment: Antiviral assay, Coxsackievirus A16-infected RD cells; format: cell-based; conditions: 100 nM and 1 μM, virus titre after 12 hours
Description: as §2
as §1, with “The cells were incubated for 48 hours at 37 °C before they were fixed with 4% paraformaldehyde and stained with crystal violet.” left out, “The 50% effective concentration, EC50, was determined for selected compounds by a non-linear regression graph fitting of the virus titre obtained at a minimum of 5 different compound concentrations and 0.05% DMSO was included as an untreated control.” left out

EV71 3C protease [4] = target: T1, EV71 3C protease (Human enterovirus 71, UniProt Q66478); conditions: cited from earlier work; for IC50: EV71 3C protease (strain 5865/sin/000009), biochemical protease inhibition assay, read-out: Inhibitory Potency, IC50
EV71 3C protease [5] = target: T1, EV71 3C protease; experiment: EV71 3C protease inhibition assay (chromogenic substrate succinyl-EALFQ-pNA); format: biochemical; conditions: EV71 3C protease 6 μM, 2 h preincubation at 25 °C, pH 7.0; read-out: Inhibitory Potency, IC50
Description: EV71 3C protease inhibition assays were based on a published procedure[7] and performed in a buffer containing Tris-HCl (50 mM), NaCl (150 mM), EDTA (1 mM), glycerol (10% v/v) and DTT (2 mM) at pH 7.0. The protease (6 μM) and varying inhibitor concentrations were incubated at 25 °C for 2 h. The final DMSO concentration was maintained at 2%. After that, the chromogenic peptide substrate succinyl-EALFQ-pNA (Peptides International, USA) was added to make a final concentration of 200 μM. The contents were incubated at 25 °C for 2 h. Absorbance at 405 nm was measured with a plate reader at 30 °C. All experiments were conducted in duplicates. IC50 values were derived by fitting the initial velocity against the log [inhibitor] using GraphPad Prism 5 software (USA).

T1 sequence (Q66478 1549-1731): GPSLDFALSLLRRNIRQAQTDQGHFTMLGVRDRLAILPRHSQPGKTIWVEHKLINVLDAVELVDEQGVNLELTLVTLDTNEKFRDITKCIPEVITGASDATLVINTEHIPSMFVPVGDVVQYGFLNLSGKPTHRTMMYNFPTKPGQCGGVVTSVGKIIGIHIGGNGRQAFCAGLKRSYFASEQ

| Papp at 4 h, 50 μM [2] | IC50 (EV71 3C protease [5]) | Structure (SMILES) | Antiviral activity on EV71-infected RD cells (in words) [1] | also measured |
| --- | --- | --- | --- | --- |
| 46.9 ± 4.7 ×10⁻⁶ cm/s |  | CCOC(=O)/C=C/[C@H](C[C@@H]1CCNC1=O)NC(=O)[C@@H](CC(=O)[C@@H](NC(=O)c1cc(C)on1)C(C)C)Cc1ccc(F)cc1 [Compound 1, Rupintrivir, reference compound] | significant reduction in viral titre | EC50 ([1]; EV71-infected RD cells, virus titre by plaque assay): 0.016 µM; Membrane permeability (in words) ([2]; pH 7.4): highly membrane permeable; Antiviral activity against Echovirus 7 (in words) (Echovirus 7 (E7)): demonstrated antiviral activities; Antiviral activity against Coxsackievirus A6 (in words) (Coxsackievirus A6 (CA6)): demonstrated antiviral activities; Antiviral activity against Coxsackievirus A16 (in words) [3]: demonstrated antiviral activities; IC50 (EV71 3C protease [4]): 7.3 ± 0.8 µM; Inhibition of EV71 3C protease (in words) (EV71 3C protease [4]; earlier reports): micromolar potency |
| 7.1 ± 0.9 ×10⁻⁶ cm/s |  | CCOC(=O)/C=C/[C@H](C[C@@H]1CCNC1=O)NC(=O)[C@@H]1[C@@H](c2ccccc2)CCN1C(=O)[C@@H](NC(=O)c1cc(C)on1)C(C)C [Compound 2] | failed to demonstrate significant antiviral activity; also recorded: weakly active | Fold less permeable than Rupintrivir ([2]; pH 7.4): approximately 7 fold; IC50 (EV71 3C protease [4]): 3.2 ± 0.5 µM; Fold more potent than Rupintrivir in the protease inhibition assay (EV71 3C protease [4]; IC50 compared with Rupintrivir): 2 fold |
| 25.1 ± 3.6 ×10⁻⁶ cm/s | 6.2 ± 0.6 µM | CCOC(=O)/C=C/[C@H](C[C@@H]1CCNC1=O)NC(=O)[C@H](Cc1ccc(F)cc1)NC(=O)[C@@H](NC(=O)c1cc(C)on1)C(C)C [Compound 3] | significantly less potent than Rupintrivir | Fold less permeable than Rupintrivir ([2]; pH 7.4): approximately 2 fold |
| 12.6 ± 1.8 ×10⁻⁶ cm/s | 9.3 ± 0.6 µM | CCOC(=O)/C=C/[C@H](C[C@@H]1CCNC1=O)NC(=O)[C@@H](CC(=O)[C@@H](NC(=O)c1cccnn1)C(C)C)Cc1ccc(F)cc1 [Compound 4, ethyl-(S,E)-4-(2R,5S)-2-(4-fluorobenzyl)-6-methyl-4-oxo-5-pyridazine-3-carboxamidoheptanamido-5-(S)-2-oxopyrrolidin-3-yl-pent-2-enoate] | significantly reduced |  |
| 14.9 ± 3.3 ×10⁻⁶ cm/s | 22.4 ± 3.5 µM | CCOC(=O)/C=C/[C@H](C[C@@H]1CCNC1=O)NC(=O)[C@@H](CC(=O)[C@@H](NC(=O)c1ccccn1)C(C)C)Cc1ccc(F)cc1 [Compound 5, ethyl-(S,E)-4-(2R,5S)-2-(4-fluorobenzyl)-6-methyl-4-oxo-5-picolinamidoheptanamido-5-(S)-2-oxopyrrolidin-3-yl-pent-2-enoate] | did not exhibit significant antiviral activity |  |
| 16.9 ± 5.2 ×10⁻⁶ cm/s | > 100 µM | CCOC(=O)/C=C/[C@H](C[C@@H]1CCNC1=O)NC(=O)[C@@H](CC(=O)[C@@H](NC(=O)c1cccnc1)C(C)C)Cc1ccc(F)cc1 [Compound 6, ethyl-(S,E)-4-(2R,5S)-2-(4-fluorobenzyl)-6-methyl-5-nicotinamido-4-oxoheptanamido-5-(S)-2-oxopyrrolidin-3-yl-pent-2-enoate] | did not exhibit significant antiviral activity |  |
| 11.6 ± 2.3 ×10⁻⁶ cm/s | 5.2 ± 1 µM | CCOC(=O)/C=C/[C@H](C[C@@H]1CCNC1=O)NC(=O)[C@@H](CC(=O)[C@@H](NC(=O)c1nnccc1C)C(C)C)Cc1ccc(F)cc1 [Compound 7, ethyl-(S,E)-4-(2R,5S)-2-(4-fluorobenzyl)-6-methyl-5-(4-methylpyridazine-3-carboxamido)-4-oxoheptanamido-5-(S)-2-oxopyrrolidin-3-yl-pent-2-enoate] | inferior compared to Rupintrivir; also recorded: failed to demonstrate significant antiviral activity |  |
| 12.6 ± 0.7 ×10⁻⁶ cm/s | 3.7 ± 0.6 µM | CCOC(=O)/C=C/[C@H](C[C@@H]1CCNC1=O)NC(=O)[C@@H](CC(=O)[C@@H](NC(=O)c1ccc(C)nn1)C(C)C)Cc1ccc(F)cc1 [Compound 8, ethyl-(S,E)-4-(2R,5S)-2-(4-fluorobenzyl)-6-methyl-5-(6-methylpyridazine-3-carboxamido)-4-oxoheptanamido-5-(S)-2-oxopyrrolidin-3-yl-pent-2-enoate] | inferior compared to Rupintrivir; also recorded: failed to demonstrate significant antiviral activity |  |
| 15 ± 2.6 ×10⁻⁶ cm/s | > 100 µM | CCOC(=O)/C=C/[C@H](C[C@@H]1CCNC1=O)NC(=O)[C@@H](CC(=O)[C@@H](NC(=O)C(C)(C)C)C(C)C)Cc1ccc(F)cc1 [Compound 10, ethyl-(S,E)-4-(2R,5S)-2-(4-fluorobenzyl)-6-methyl-4-oxo-5-pivalamidoheptanamido-5-(S)-2-oxopyrrolidin-3-yl-pent-2-enoate] | abrogation of both biochemical and cellular activity |  |
| 16.9 ± 0.8 ×10⁻⁶ cm/s | 11.7 ± 0.7 µM | CCOC(=O)/C=C/[C@H](C[C@@H]1CCNC1=O)NC(=O)[C@@H](CC(=O)[C@@H](NC(=O)C(C)C)C(C)C)Cc1ccc(F)cc1 [Compound 11, ethyl-(S,E)-4-(2R,5S)-2-(4-fluorobenzyl)-5-isobutyramido-6-methyl-4-oxoheptanamido-5-(S)-2-oxopyrrolidin-3-yl-pent-2-enoate] | significantly reduced antiviral activity |  |

| Structure (SMILES) | Papp at 4 h, 50 μM [2] | IC50 (EV71 3C protease [5]) | Antiviral activity on EV71-infected RD cells (in words) [1] | also measured |
| --- | --- | --- | --- | --- |
| CCOC(=O)/C=C/[C@H](C[C@@H]1CCNC1=O)NC(=O)[C@@H](CC(=O)[C@@H](NC(=O)C(F)(F)F)C(C)C)Cc1ccc(F)cc1 [Compound 9] | 32.7 ± 6.7 ×10⁻⁶ cm/s | 7.7 ± 0.8 µM | exhibited antiviral activity; also recorded: potent antiviral activity | EC50 ([1]; EV71, RD): 0.065 µM; Antiviral activity against Echovirus 7 (in words) (Echovirus 7 (E7)): potent antiviral activity; also recorded: demonstrated antiviral activities; Antiviral activity against Coxsackievirus A6 (in words) (Coxsackievirus A6 (CA6)): potent antiviral activity; also recorded: demonstrated antiviral activities; Antiviral activity against Coxsackievirus A16 (in words) [3]: potent antiviral activity; also recorded: demonstrated antiviral activities |
